Experimental data from ChEMBL document CHEMBL4428037 (J Med Chem, 2016).
The source made the active and inactive calls. The rule behind the calls is not given here.

How the values were obtained:
PC-3 = assay: Growth inhibition of human PC3 cells incubated for 72 hrs by MTT assay; assay type: functional, cell-based; conditions: PC-3, 72 h
NCI-H460 = assay: Growth inhibition of human NCI-H460 cells incubated for 48 hrs by MTT assay; assay type: functional, cell-based; conditions: NCI-H460, 48 h
Tubulin (Sus scrofa) = Tubulin (Sus scrofa) (UniProt P02554+P02550); assay: Displacement of [3H]colchicine from biotinylated porcine tubulin at 1 uM incubated for 2 hrs by competition scintillation proximity; assay type: protein assay
A549 [1] = assay: Increase in cyclin B1 expression in human A549 cells incubated for 24 hrs by Western blotting; assay type: functional, cell-based
A549 [2] = assay: Induction of apoptosis in human A549 cells assessed as induction of cytoplasmic membrane blebbing at 40 nM incubated for 24 hrs microscopy; assay type: functional, cell-based
A549 [3] = assay: Induction of apoptosis in human A549 cells assessed as necrotic cells level at 10 nM incubated for 24 hrs by Annexin V-FITC/PI staining based FACS flow cytometry (reference value: 0.37%); assay type: functional
A549 [4] = assay: Induction of apoptosis in human A549 cells assessed as live cells level at 40 nM incubated for 24 hrs by Annexin V-FITC/PI staining based FACS flow cytometry (reference value: 96.83%); assay type: functional
A549 [5] = assay: Induction of apoptosis in human A549 cells assessed as late apoptotic cells level at 40 nM incubated for 24 hrs by Annexin V-FITC/PI staining based FACS flow cytometry (reference value: 2.15%); assay type: functional
A549 [6] = assay: Induction of apoptosis in human A549 cells assessed as increase in PARP cleavage level incubated for 24 hrs by Western blotting; assay type: functional, cell-based
[7] = test system: Non-small cell lung cancer cell line; assay: Antitumor activity against human NSCLC xenografted in Balb/c-nu mouse assessed as inhibition of tumor growth at 12.5 mg/kg, ip dosed every day for 21 consecutive days and measured every 3 days; assay type: functional; conditions: 72 h, read-out: TGI
[8] = test system: Non-small cell lung cancer cell line; assay: Antitumor activity against human NSCLC xenografted in Balb/c-nu mouse assessed as induction of delay in tumor volume increase at 50 mg/kg, ip dosed every day for 21 consecutive days and measured every 3 days; assay type: functional, organism-based
[9] = Toxicity in human NSCLC xenografted Balb/c-nu mouse assessed as effect on body weight at 12.5 mg/kg, ip dosed every day for 21 consecutive days; assay type: organism-based; conditions: in vivo
[10] = Toxicity in human NSCLC xenografted Balb/c-nu mouse assessed as effect on body weight at 50 mg/kg, ip dosed every day for 21 consecutive days; assay type: organism-based; conditions: in vivo

**Q.** What does the source list for `CCOc1cccc(Nc2nn(C)c3c2Cc2cc(OCC)c(OCC(N)=O)cc2-3)c1`?
**A.** IC50 (PC-3): 19 nM; IC50 (NCI-H460): 37.3 nM; inhibition (Tubulin (Sus scrofa)): 37%; Activity (A549 [1]): Dose-dependent effect; Activity (A549 [2]): Active; Activity (A549 [3]): 0.62%; Activity (A549 [4]): 84.24%; Activity (A549 [5]): 5.47%; Activity (A549 [6]): Dose-dependent effect; inhibition in vivo at 12.5 mg/kg [7]: 33.8%; Activity [8]: Active; Activity [9]: Non-Toxic; Activity [10]: Non-Toxic
